We go through seven compounds from patent US9096639B2, “17-hydroxy-17-pentafluorethyl-estra-4,9(10)-dien-11-acyloxyalkylene phenyl derivatives, methods for the production thereof and use thereof for treating diseases” (Bayer Intellectual Property GmbH, priority 2009, dated 2015).

The nature of data set [1]: Determination of stability in human plasma. The class given is in vitro ADME. On the procedure:
(§1) A stock solution of 1.0 mg of the substance to be tested in a 9:1 mixture of acetonitrile and dimethyl sulphoxide was prepared. 20 μl of this stock solution were added at 37° C. to 1 ml of human plasma or rat plasma. To determine the content, 100 μl samples were each taken at different times. The enzyme activity was blocked by adding 300 μl of acetonitrile, the samples were centrifuged at 5000 rpm over 10 minutes and, in the supernatant, the content of ester and hydrolysis products (8S,11R,13S,14S,17S)-17-hydroxy-11-[4-((R)-1-hydroxyethyl)phenyl]-1 3-methyl-17-pentafluoroethyl-1,2,6,7,8,11,12,13,14,15,16,17-dodecahydrocyclopenta[a]phenanthren-3-one and/or (8S,11R,13S,14S,17S)-17-hydroxy-11-[4-((S)-1-hydroxyethyl)phenyl]-13-methyl-17-pentafluoroethyl-1,2,6,7,8,11,12,13,14,15,16,17-dodecahydrocyclopenta[a]phenanthrene-3-one was determined by HPLC. The concentration-time curves were used to calculate the degradation kinetics. The stability of the substance tested was reported as the half-life.

Data set [2] in a line: Determination of hydrolytic stability (5:1 dioxane/buffer, HPLC). To be noted: 5:1 dioxane/buffer solution, test ended after 24 or 192 hours, read-out: Hydrolytic stability t1/2. The class given is physicochemical. On the procedure:
The ester to be analyzed was dissolved in each case in a 5:1 mixture of dioxane and buffer solution (pH 1.2, pH 5.0 or pH 8.0) at 23° C. At different times, the content of ester and hydrolysis products (8S,11R,13S,14S,1 7S)-17-hydroxy-11-[4-((R)-1-hydroxyethyl)phenyl]-13-methyl-17-pentafluoroethyl-1,2,6,7,8,11,12,13,14,15,16,17-dodecahydrocyclopenta[a]phenanthren-3-one and/or (8S,11R,13S,14S,17S)-17-hydroxy-11-[4-((S)-1-hydroxyethyl)phenyl]-1 3-methyl-17-pentafluoroethyl-1,2,6,7,8,11,12,13,14,15,16,17-dodecahydrocyclopenta[a]phenanthren-3-one was determined by HPLC. The test was ended after 24 hours or 192 hours.

Data set [3] can be described thus: Determination of stability in rat plasma. The class given is in vitro ADME. Particulars: 37° C., read-out: Stability t1/2 in rat plasma (converted). As to the method: as §1
[4] abbreviates: 37° C., read-out: Stability t1/2 in human plasma (converted).
Setting [5] is: method of working example 19, summary statement in description, read-out: half-life in human plasma.

A value given as a limit tells only on which side of the number the result lay.

For the compound `CC(=O)O[C@H](C)c1ccc([C@H]2C[C@@]3(C)C(CC[C@@]3(O)C(F)(F)C(F)(F)F)C3CCC4=CC(=O)CCC4=C32)cc1` (mixture of isomers) [Example 1, acetic acid (RS)-1-[4-((8S,11R,13S,14S,17S)-17-hydroxy-13-methyl-3-oxo-17-pentafluoroethyl-2,3,6,7,8,11,12,13,14,15,16,17-dodecahydro-1H-cyclopenta[a]phenanthren-11-yl)phenyl]ethyl ester], the half-life in data set [1] (setting [4]) was 609 h; in data set [1] (setting [5]), over 100 h; in data set [2] (pH = 1.2, 23° C.), over 24 h; in data set [2] (pH = 5.0, 23° C.), over 24 h; in data set [2] (pH = 8.0, 23° C.), over 24 h; in data set [3], 57.5 h.
On to `CC(C)CC(=O)OC(C)c1ccc([C@H]2C[C@@]3(C)C(CC[C@@]3(O)C(F)(F)C(F)(F)F)C3CCC4=CC(=O)CCC4=C32)cc1` (mixture of isomers) [Example 3, 3-Methylbutyric acid (RS)-1-[4-((8S,11R,13S,14S,17S)-17-hydroxy-13-methyl-3-oxo-17-pentafluoroethyl-2,3,6,7,8,11,12,13,14,15,16,17-dodecahydro-1H-cyclopenta[a]phenanthren-11-yl)phenyl]ethyl ester], for which the half-life in data set [1] (setting [4]) was over 1000 h; in data set [1] (setting [5]) it was over 100 h; in data set [2] (pH = 1.2, 23° C.), over 24 h; in data set [2] (pH = 5.0, 23° C.), over 24 h; in data set [2] (pH = 8.0, 23° C.), over 24 h; in data set [3], 89 h.
Take `CC(OC(=O)CC(C)(C)C)c1ccc([C@H]2C[C@@]3(C)C(CC[C@@]3(O)C(F)(F)C(F)(F)F)C3CCC4=CC(=O)CCC4=C32)cc1` (mixture of isomers) [Example 4, 3,3-Dimethylbutyric acid (RS)-1-[4-((8S,11R,13S,14S,17S)-17-hydroxy-13-methyl-3-oxo-17-pentafluoroethyl-2,3,6,7,8,11,12,13,14,15,16,17-dodecahydro-1H-cyclopenta[a]phenanthren-11-yl)phenyl]ethyl ester]: the half-life is over 1000 h in data set [1] (setting [4]); over 100 h in data set [1] (setting [5]); over 24 h in data set [2] (pH = 1.2, 23° C.); over 24 h in data set [2] (pH = 5.0, 23° C.); over 24 h in data set [2] (pH = 8.0, 23° C.); over 1000 h in data set [3].
On to `CC(OC(=O)[C@@H](C)NC(=O)OC(C)(C)C)c1ccc([C@H]2C[C@@]3(C)[C@@H](CC[C@@]3(O)C(F)(F)C(F)(F)F)[C@@H]3CCC4=CC(=O)CCC4=C32)cc1` (mixture of isomers) [Example 6, (R)-2-tert-Butoxycarbonylaminopropionic acid (RS)-1-[4-((8S,11R,13S,-14S,17S)-17-hydroxy-13-methyl-3-oxo-17-pentafluoroethyl-2,3,6,7,8,11,12,13,14,15,16,17-dodecahydro-1H-cyclopenta[a]phenanthren-11-yl)phenyl]ethyl ester], for which the half-life in data set [1] (setting [4]) is 491 h; in data set [1] (setting [5]), over 100 h; in data set [2] (pH = 1.2, 23° C.) it was over 24 h; in data set [2] (pH = 5.0, 23° C.) it was over 24 h; in data set [2] (pH = 8.0, 23° C.), over 24 h; in data set [3], 43.9 h.
On to `CC(C)C(=O)OC(C)c1ccc([C@H]2C[C@@]3(C)C(CC[C@@]3(O)C(F)(F)C(F)(F)F)C3CCC4=CC(=O)CCC4=C32)cc1` (mixture of isomers) [Example 2, Isobutyric acid (RS)-1-[4-((8S,11R,13S,14S,17S)-17-hydroxy-13-methyl-3-oxo-17-pentafluoroethyl-2,3,6,7,8,11,12,13,14,15,16,17-dodecahydro-1H-cyclopenta[a]-phenanthren-11-yl)phenyl]ethyl ester], for which the half-life in data set [1] (setting [4]) was 803 h; in data set [1] (setting [5]), over 100 h; in data set [2] (pH = 1.2, 23° C.) it was over 24 h; in data set [2] (pH = 5.0, 23° C.) it was over 24 h; in data set [2] (pH = 8.0, 23° C.) it was over 24 h; in data set [3] it was 33.4 h.
Take `CC(OC(=O)[C@@H](NC(=O)OC(C)(C)C)C(C)C)c1ccc([C@H]2C[C@@]3(C)C(CC[C@@]3(O)C(F)(F)C(F)(F)F)C3CCC4=CC(=O)CCC4=C32)cc1` (mixture of isomers) [Example 5, (S)-2-tert-Butoxycarbonylamino-3-methylbutyric acid (RS)-1-[4-((8S,11R,-13S,14S,17S)-17-hydroxy-13-methyl-3-oxo-17-pentafluoroethyl-2,3,6,7,8,11,12,13,14,15,-16,17-dodecahydro-1H-cyclopenta[a]phenanthren-11-yl)phenyl]ethyl ester]: the half-life was over 1000 h in data set [1] (setting [4]); over 100 h in data set [1] (setting [5]); over 192 h in data set [2] (pH = 1.2, 23° C.); over 192 h in data set [2] (pH = 5.0, 23° C.); over 192 h in data set [2] (pH = 8.0, 23° C.); 156 h in data set [3].
As to `CC(OC(=O)[C@H](C)NC(=O)OC(C)(C)C)c1ccc([C@H]2C[C@@]3(C)C(CC[C@@]3(O)C(F)(F)C(F)(F)F)C3CCC4=CC(=O)CCC4=C32)cc1` (mixture of isomers) [Example 7, (S)-2-tert-Butoxycarbonylaminopropionic acid (RS)-1-[4-((8S,11R,13S,-14S,17S)-17-hydroxy-13-methyl-3-oxo-17-pentafluoroethyl-2,3,6,7,8,11,12,13,14,15,16,17-dodecahydro-1H-cyclopenta[a]phenanthren-11-yl)phenyl]ethyl ester], the half-life is over 1000 h in data set [1] (setting [4]); over 100 h in data set [1] (setting [5]); over 24 h in data set [2] (pH = 1.2, 23° C.); over 24 h in data set [2] (pH = 5.0, 23° C.); over 24 h in data set [2] (pH = 8.0, 23° C.); 3.1 h in data set [3].
